Residue numbers refer to the chain shown, from its start. The source made the active and inactive calls. The rule behind the calls is not given here.
Columns and labels:
[1] = molecular target: T1, Type-1 angiotensin II receptor (Homo sapiens, UniProt P30556); assay: Displacement of [125I]Sar1Ile8-Ang2 from human AT1 receptor expressed in CHO-K1 cell membranes after 180 mins
T1 sequence (P30556 whole entry): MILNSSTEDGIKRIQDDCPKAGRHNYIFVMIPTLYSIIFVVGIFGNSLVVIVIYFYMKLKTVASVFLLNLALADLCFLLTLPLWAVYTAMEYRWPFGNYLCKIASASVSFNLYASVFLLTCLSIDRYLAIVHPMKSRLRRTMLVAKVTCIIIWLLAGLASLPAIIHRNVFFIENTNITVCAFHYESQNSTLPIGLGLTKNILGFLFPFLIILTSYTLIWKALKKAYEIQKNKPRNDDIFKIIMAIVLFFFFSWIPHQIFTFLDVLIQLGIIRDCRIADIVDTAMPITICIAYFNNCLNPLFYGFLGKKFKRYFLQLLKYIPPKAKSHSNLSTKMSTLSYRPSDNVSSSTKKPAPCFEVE

[2] = molecular target: T2, Type-1 angiotensin II receptor (Oryctolagus cuniculus, UniProt P34976); assay: Antagonist activity against AT1 receptor in Japanese White rabbit aortic strips assessed as reduction in angiotension-2-induced contractile response after 60 mins by Schild's plot analysis; conditions: read-out: pA2 (converted)
T2 sequence (P34976 whole entry): T1 sequence (P30556 whole entry) with I2M, V49A, I254V, I270V, R272H, R311K, T349S, A353V

[3] = tested on: Rattus norvegicus; assay: Antihypertensive activity in spontaneously hypertensive rat assessed as decrease in mean blood pressure at 10 mg/kg, po within 24 hrs by tail-cuff plethysmography; assay type: functional, organism-based
[4] = Toxicity in Kunming mouse at 2 g/kg, po assessed as mortality after 2 weeks; assay type: organism-based; conditions: in vivo, 2000 mg/kg
[5] = Toxicity in Kunming mouse at 1.8 g/kg, po assessed as mortality after 2 weeks; assay type: organism-based; conditions: in vivo, 1800 mg/kg
[6] = Toxicity in Kunming mouse at 1.5 g/kg, po assessed as mortality after 2 weeks; assay type: organism-based; conditions: in vivo, 1500 mg/kg
[7] = Toxicity in Kunming mouse at 1.3 g/kg, po assessed as mortality after 2 weeks; assay type: organism-based; conditions: in vivo, 1300 mg/kg
[8] = Toxicity in orally dosed Kunming mouse assessed as mortality after 2 weeks; assay type: organism-based; conditions: in vivo, po
[9] = tested on: Rattus norvegicus; assay: Antihypertensive activity in spontaneously hypertensive rat assessed as mean blood pressure at 30 mg/kg, po by tail-cuff plethysmography; assay type: functional, organism-based

Molecule `CCCc1nc2c(C)cc(C(=S)NC[C@H](C)c3ccccc3)cc2n1Cc1ccc(-c2ccccc2C(=O)O)cc1` has an IC50 [1] of 1120 nM.
In the case of `CCCc1nc2c(C)cc(C(=O)N[C@H](CO)c3ccccc3)cc2n1Cc1ccc(-c2ccccc2C(=O)O)cc1`, the IC50 [1] is reported as 214 nM and the Kb [2] is reported as 3.98 nM.
With `CCCc1nc2c(C)cc(C(=S)NC[C@@H](C)c3ccccc3)cc2n1Cc1ccc(-c2ccccc2-c2nnn[nH]2)cc1` the IC50 [1] was 343 nM.
In the case of `CCSc1nc2c(C)cc(C(=O)NC[C@@H](C)c3ccccc3)cc2n1Cc1ccc(-c2ccccc2-c2nnn[nH]2)cc1`, the IC50 [1] is reported as 622 nM.
`CCCc1nc2c(C)cc(C(=O)NC[C@@H](C)c3ccccc3)cc2n1Cc1ccc(-c2ccccc2C(=O)O)cc1` showed an IC50 [1] of 40.4 nM and a Kb [2] of 1.86 nM.
For `CSc1nc2c(C)cc(C(=O)NC[C@H](C)c3ccccc3)cc2n1Cc1ccc(-c2ccccc2-c2nnn[nH]2)cc1`, the IC50 [1] was 671 nM.
In the case of `CCCc1nc2c(C)cc(C(=O)N[C@@H](COC)c3ccccc3)cc2n1Cc1ccc(-c2ccccc2C(=O)O)cc1`, the IC50 [1] is reported as 70 nM and the Kb [2] is reported as 3.16 nM.
With `CCCc1nc2c(C)cc(C(=O)N[C@H](COC)c3ccccc3)cc2n1Cc1ccc(-c2ccccc2-c2nnn[nH]2)cc1` the IC50 [1] was 157 nM and the Kb [2] was 3.16 nM.
Work on `CCOc1nc2c(C)cc(C(=O)NC[C@H](C)c3ccccc3)cc2n1Cc1ccc(-c2ccccc2C(=O)O)cc1` yielded an IC50 [1] of 7.3 nM.
`CCCc1nc2c(C)cc(C(=O)NC[C@@H](O)c3ccccc3)cc2n1Cc1ccc(-c2ccccc2-c2nnn[nH]2)cc1` gave an IC50 [1] of 106 nM.
`CCCc1nc2c(C)cc(C(=O)NCCc3ccccc3)cc2n1Cc1ccc(-c2ccccc2C(=O)O)cc1` showed an IC50 [1] of 23.1 nM and a Kb [2] of 8.13 nM.
`CCCc1nc2c(C)cc(C(=O)NC[C@H](O)c3ccccc3)cc2n1Cc1ccc(-c2ccccc2C(=O)O)cc1` gave an IC50 [1] of 93.9 nM.
Molecule `CSc1nc2c(C)cc(C(=O)NC[C@@H](C)c3ccccc3)cc2n1Cc1ccc(-c2ccccc2-c2nnn[nH]2)cc1` has an IC50 [1] of 699 nM.
For `CSc1nc2c(C)cc(C(=O)NC[C@H](C)c3ccccc3)cc2n1Cc1ccc(-c2ccccc2C(=O)O)cc1`, the IC50 [1] was 609 nM.
In the case of `CCCc1nc2c(C)cc(C(=O)NCC(C)c3ccccc3)cc2n1Cc1ccc(-c2ccccc2-c2nnn[nH]2)cc1` (racemic), the IC50 [1] is reported as 16.7 nM and the Kb [2] is reported as 3.09 nM.
`CCCc1nc2c(C)cc(C(=O)N[C@@H](COC)c3ccccc3)cc2n1Cc1ccc(-c2ccccc2-c2nnn[nH]2)cc1` gave an IC50 [1] of 38.9 nM and a Kb [2] of 6.92 nM.
With `CCCc1nc2c(C)cc(C(=O)N[C@H](COC)c3ccccc3)cc2n1Cc1ccc(-c2ccccc2C(=O)O)cc1` the IC50 [1] was 57.9 nM and the Kb [2] was 3.63 nM.
In the case of `CCCc1nc2c(C)cc(C(=O)N[C@@H](C)c3ccccc3)cc2n1Cc1ccc(-c2ccccc2C(=O)O)cc1`, the IC50 [1] is reported as 19.5 nM and the Activity [3] is reported as “inactive”.
`CCSc1nc2c(C)cc(C(=O)NC[C@H](C)c3ccccc3)cc2n1Cc1ccc(-c2ccccc2-c2nnn[nH]2)cc1` gave an IC50 [1] of 503 nM.
For `CCCSc1nc2c(C)cc(C(=O)NC[C@@H](C)c3ccccc3)cc2n1Cc1ccc(-c2ccccc2C(=O)O)cc1`, the IC50 [1] was 87.2 nM.
Work on `CCOc1nc2c(C)cc(C(=O)NC[C@@H](C)c3ccccc3)cc2n1Cc1ccc(-c2ccccc2-c2nnn[nH]2)cc1` yielded an IC50 [1] of 6.3 nM.
Work on `CCCc1nc2c(C)cc(C(=O)N[C@H](CO)c3ccccc3)cc2n1Cc1ccc(-c2ccccc2-c2nnn[nH]2)cc1` yielded an IC50 [1] of 129 nM and a Kb [2] of 7.76 nM.
Work on `CCCCc1nc(Cl)c(CO)n1Cc1ccc(-c2ccccc2-c2nn[nH]n2)cc1` [LOSARTAN] yielded a mortality at 336 h [4] of 90%, a mortality at 336 h [5] of 80% and a mortality at 336 h [6] of 30%. It also gave a mortality at 336 h [7] of 10% and an LD50 at 336 h [8] of 1570 mg/kg.
`CCCc1nc2c(C)cc(C(=O)N[C@@H](CO)c3ccccc3)cc2n1Cc1ccc(-c2ccccc2-c2nnn[nH]2)cc1` gave an IC50 [1] of 293 nM and a Kb [2] of 15.8 nM.
For `CCCSc1nc2c(C)cc(C(=O)NC[C@@H](C)c3ccccc3)cc2n1Cc1ccc(-c2ccccc2-c2nnn[nH]2)cc1`, the IC50 [1] was 2.7 nM and the Activity [3] was “inactive”.
For `CCCc1nc2c(C)cc(C(=S)NC[C@@H](C)c3ccccc3)cc2n1Cc1ccc(-c2ccccc2C(=O)O)cc1`, the IC50 [1] was 738 nM.
With `CCCSc1nc2c(C)cc(C(=O)NC[C@H](C)c3ccccc3)cc2n1Cc1ccc(-c2ccccc2-c2nnn[nH]2)cc1` the IC50 [1] was 1.4 nM and the Activity [3] was “inactive”.
In the case of `CCSc1nc2c(C)cc(C(=O)NC[C@@H](C)c3ccccc3)cc2n1Cc1ccc(-c2ccccc2C(=O)O)cc1`, the IC50 [1] is reported as 788 nM.
Work on `CCOc1nc2c(C)cc(C(=O)NC[C@@H](C)c3ccccc3)cc2n1Cc1ccc(-c2ccccc2C(=O)O)cc1` yielded an IC50 [1] of 57.4 nM.
For `CCCc1nc2c(C)cc(C(=S)NC[C@H](C)c3ccccc3)cc2n1Cc1ccc(-c2ccccc2-c2nnn[nH]2)cc1`, the IC50 [1] was 366 nM.
In the case of `CCCc1nc2c(C)cc(C(=O)NC[C@@H](O)c3ccccc3)cc2n1Cc1ccc(-c2ccccc2C(=O)O)cc1`, the IC50 [1] is reported as 104 nM.
`CCCc1nc2c(C)cc(C(=O)NC[C@H](O)c3ccccc3)cc2n1Cc1ccc(-c2ccccc2-c2nnn[nH]2)cc1` showed an IC50 [1] of 161 nM.
Work on `CCCSc1nc2c(C)cc(C(=O)NC[C@H](C)c3ccccc3)cc2n1Cc1ccc(-c2ccccc2C(=O)O)cc1` yielded an IC50 [1] of 61.2 nM.
Molecule `CCSc1nc2c(C)cc(C(=O)NC[C@H](C)c3ccccc3)cc2n1Cc1ccc(-c2ccccc2C(=O)O)cc1` has an IC50 [1] of 487 nM.
For `CCCCc1nc(Cl)c(CO)n1Cc1ccc(-c2ccccc2-c2nnn[nH]2)cc1`, the Activity [9] was “Active”.
`CCOc1nc2c(C)cc(C(=O)NC[C@H](C)c3ccccc3)cc2n1Cc1ccc(-c2ccccc2-c2nnn[nH]2)cc1` gave an IC50 [1] of 3.5 nM.
In the case of `CCCc1nc2c(C)cc(C(=O)N[C@H](C)c3ccccc3)cc2n1Cc1ccc(-c2ccccc2C(=O)O)cc1`, the IC50 [1] is reported as 90.5 nM.
For `CCCc1nc2c(C)cc(C(=O)N[C@@H](CO)c3ccccc3)cc2n1Cc1ccc(-c2ccccc2C(=O)O)cc1`, the IC50 [1] was 496 nM and the Kb [2] was 7.41 nM.
`CCCc1nc2c(C)cc(C(=O)NC[C@H](C)c3ccccc3)cc2n1Cc1ccc(-c2ccccc2C(=O)O)cc1` showed an IC50 [1] of 23 nM and a Kb [2] of 5.62 nM.
Molecule `CSc1nc2c(C)cc(C(=O)NC[C@@H](C)c3ccccc3)cc2n1Cc1ccc(-c2ccccc2C(=O)O)cc1` has an IC50 [1] of 1370 nM.
Molecule `CCCc1nc2c(C)cc(C(=O)NC[C@@H](C)c3ccccc3)cc2n1Cc1ccc(-c2ccccc2-c2nnn[nH]2)cc1` has an IC50 [1] of 5 nM and a Kb [2] of 26.3 nM.

Source: ChEMBL document CHEMBL3734751, “Discovery of novel, potent and low-toxicity angiotensin II receptor type 1 (AT1) blockers: Design, synthesis and biological evaluation of 6-substituted aminocarbonyl benzimidazoles with a chiral center” (Eur J Med Chem, 2015)
